Source: patent US11274100B2, “EP300/CREBBP inhibitor” (Daiichi Sankyo Company, Limited, priority 2017, dated 2022)

Key:
[1] = molecular target: EP300 (Homo sapiens, UniProt Q09472); assay: Histone acetyltransferase inhibitory activity against EP300 (Test Example 1); format: biochemical; details: 50 ng/mL EP300, 2 μM Acetyl-CoA, 100 nM Histone H4(1-25)-GSGSK (Biotin), 28° C. for 1 hour
Protocol: (§1) [Test Example 1] Evaluation of Histone
(§2) Acetyltransferase Inhibitory Activity against EP300 and CREBBP
(§3) 10 μL each of reaction solutions each containing a different concentration of the compound of each of Examples 1 to 108b (50 mM Tris-HCl (pH8.0), 0.1 mM EDTA, 1 mM dithiothreitol, 0.01% Tween-20, 0.01% Bovine serum albumin, 330 nM trichostatin A, 2 μM Acetyl-CoA (Sigma-Aldrich, #A2056), 100 nM Histone H4(1-25)-GSGSK (Biotin) (Anaspec, #65242-1), 1% dimethyl sulfoxide, 10 to 0.0006 μM of each compound, 50 ng/mL EP300 or 125 ng/mL CREBBP) was added to respective wells of a 384-well plate, and cultured at 28° C. for 1 hour. Thereafter, 5 μL of 30 μM Lys-CoA (Daiichi Sankyo Co., Ltd.) dissolved in LANCE detection buffer (Perkin Elmer Co., Ltd., #CR97-100) was added to each well. Furthermore, 5 μL of LANCE detection buffer containing 2 nM Eu-anti pan-Ac (Perkin Elmer Co., Ltd., #TRF0412) and 50 nM Sta-Ulight (Perkin Elmer Co., Ltd., #TRF0102) was added to each well, and the resultant was cultured at room temperature overnight. EnVision (Perkin Elmer Co., Ltd., Model 2104-0020) was used to measure ULight signals. […] EP300 and CREBBP were produced and purified by Daiichi Sankyo RD Novare Co., Ltd.

[2] = molecular target: CREBBP (Homo sapiens, UniProt Q92793); assay: Histone acetyltransferase inhibitory activity against CREBBP (Test Example 1); format: biochemical; details: 125 ng/mL CREBBP, 2 μM Acetyl-CoA, 100 nM Histone H4(1-25)-GSGSK (Biotin), 28° C. for 1 hour
CREBBP, sequence (Q92793 whole entry): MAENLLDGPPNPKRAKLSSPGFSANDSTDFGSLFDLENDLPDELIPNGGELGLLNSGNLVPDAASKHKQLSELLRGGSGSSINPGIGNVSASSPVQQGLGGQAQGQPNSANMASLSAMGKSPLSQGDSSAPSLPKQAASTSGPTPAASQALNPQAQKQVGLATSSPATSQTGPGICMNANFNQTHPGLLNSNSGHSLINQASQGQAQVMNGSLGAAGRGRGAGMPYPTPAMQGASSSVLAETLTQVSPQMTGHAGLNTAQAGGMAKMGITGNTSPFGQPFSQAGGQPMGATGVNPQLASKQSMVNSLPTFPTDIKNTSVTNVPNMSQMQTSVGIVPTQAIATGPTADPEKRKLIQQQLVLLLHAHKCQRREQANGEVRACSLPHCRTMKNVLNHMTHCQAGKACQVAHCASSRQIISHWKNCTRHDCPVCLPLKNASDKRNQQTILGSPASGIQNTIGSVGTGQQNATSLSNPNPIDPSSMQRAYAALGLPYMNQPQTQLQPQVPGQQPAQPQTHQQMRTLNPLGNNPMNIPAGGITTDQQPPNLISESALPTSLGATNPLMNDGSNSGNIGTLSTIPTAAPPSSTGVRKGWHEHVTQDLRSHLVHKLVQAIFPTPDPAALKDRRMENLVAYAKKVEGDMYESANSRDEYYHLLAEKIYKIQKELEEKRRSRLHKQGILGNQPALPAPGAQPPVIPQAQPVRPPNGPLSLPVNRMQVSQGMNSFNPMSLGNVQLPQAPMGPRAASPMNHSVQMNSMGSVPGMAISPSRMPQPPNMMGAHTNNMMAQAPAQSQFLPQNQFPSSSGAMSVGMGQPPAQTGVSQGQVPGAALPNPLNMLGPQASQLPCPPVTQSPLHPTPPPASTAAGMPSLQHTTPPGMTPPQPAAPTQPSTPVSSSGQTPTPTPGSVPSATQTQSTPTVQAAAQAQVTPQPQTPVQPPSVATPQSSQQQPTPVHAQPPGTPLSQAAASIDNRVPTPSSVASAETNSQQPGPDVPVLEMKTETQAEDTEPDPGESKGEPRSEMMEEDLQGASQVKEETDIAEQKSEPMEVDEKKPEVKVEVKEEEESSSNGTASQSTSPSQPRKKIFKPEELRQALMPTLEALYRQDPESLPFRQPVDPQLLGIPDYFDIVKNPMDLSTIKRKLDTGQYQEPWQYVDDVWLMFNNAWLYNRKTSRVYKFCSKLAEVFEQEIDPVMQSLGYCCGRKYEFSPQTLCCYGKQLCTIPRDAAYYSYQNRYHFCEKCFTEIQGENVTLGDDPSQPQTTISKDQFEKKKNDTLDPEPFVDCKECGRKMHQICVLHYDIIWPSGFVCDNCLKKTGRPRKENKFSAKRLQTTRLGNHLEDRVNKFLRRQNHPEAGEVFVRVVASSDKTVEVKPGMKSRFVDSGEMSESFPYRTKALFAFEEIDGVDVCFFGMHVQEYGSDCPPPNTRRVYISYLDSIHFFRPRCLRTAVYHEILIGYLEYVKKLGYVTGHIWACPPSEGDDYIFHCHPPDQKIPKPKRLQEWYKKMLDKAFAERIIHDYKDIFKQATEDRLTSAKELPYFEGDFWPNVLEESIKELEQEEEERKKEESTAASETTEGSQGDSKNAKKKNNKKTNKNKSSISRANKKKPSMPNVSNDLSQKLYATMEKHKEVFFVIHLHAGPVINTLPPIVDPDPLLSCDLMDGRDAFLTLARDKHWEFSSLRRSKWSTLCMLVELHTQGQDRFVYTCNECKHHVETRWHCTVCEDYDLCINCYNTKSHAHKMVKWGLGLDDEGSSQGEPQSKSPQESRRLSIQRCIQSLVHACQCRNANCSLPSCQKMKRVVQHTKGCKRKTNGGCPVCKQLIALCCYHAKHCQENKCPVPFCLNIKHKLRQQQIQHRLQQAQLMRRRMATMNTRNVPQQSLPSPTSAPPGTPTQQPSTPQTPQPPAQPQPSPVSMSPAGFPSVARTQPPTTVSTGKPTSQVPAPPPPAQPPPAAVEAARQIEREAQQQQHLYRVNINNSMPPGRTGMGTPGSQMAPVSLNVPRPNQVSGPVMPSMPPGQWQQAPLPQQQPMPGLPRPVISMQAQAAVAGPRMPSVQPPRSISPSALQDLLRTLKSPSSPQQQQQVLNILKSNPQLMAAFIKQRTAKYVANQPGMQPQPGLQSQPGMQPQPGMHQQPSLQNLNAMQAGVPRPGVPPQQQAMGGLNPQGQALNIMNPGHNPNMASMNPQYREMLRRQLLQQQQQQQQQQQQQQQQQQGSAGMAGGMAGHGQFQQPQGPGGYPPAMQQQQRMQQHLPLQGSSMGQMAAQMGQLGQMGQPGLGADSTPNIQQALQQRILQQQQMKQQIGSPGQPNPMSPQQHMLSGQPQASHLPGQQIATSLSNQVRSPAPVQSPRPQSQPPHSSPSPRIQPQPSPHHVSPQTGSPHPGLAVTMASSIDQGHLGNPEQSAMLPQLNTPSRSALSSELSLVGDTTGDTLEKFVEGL
Protocol: as §1, §2, §3

[3] = system: H3K27Ac; assay: Intracellular H3K27Ac inhibitory activity in LK2 cells (Test Example 2); format: cell-based; details: Homo sapiens, LK-2, cultured with compound for 3 hours, read-out: Test Example 2 H3K27Ac Inhibition (LK2) IC50
Protocol: [Test Example 2] Evaluation of Intracellular H3K27Ac Inhibitory Activity
LK2 cells derived from human squamous cell lung cancer were seeded in a 96 well plate at 40000 cells/100 μL/well, and were cultured overnight at 37° C. in 5% CO2. The LK2 cells were purchased from Human Science Research Resources Bank. […] The supernatant was discarded, 4% paraformaldehyde was added thereto at 100 μL/well, and the resultant was allowed to stand still at room temperature for 15 minutes. The 4% paraformaldehyde was discarded, and the resultant was washed with PBS-T. A quenching buffer (PBS-T containing 1% H2O2) was added thereto at of 100 μL/well, and the resultant was allowed to stand still at room temperature for 10 minutes. The resultant was washed with PBS-T, a blocking buffer (StartingBlocK T20 (TBS) Blocking Buffer (Thermo […], #37543)) was added thereto at 200 μL/well, and the resultant was allowed to stand still at room temperature for 1 hour. The supernatant was discarded, Acetyl-Histone H3 (Lys27) (D5E4) XP (registered trademark) Rabbit mAb (cell Signaling, #8173) diluted with a blocking buffer was added thereto at 50 μL/well, and the resultant was allowed to stand still at 4° C. overnight. The resultant was washed with PBS-T, Anti-Rabbit IgG-HRP (Cell Signaling, #7074S) diluted with a blocking buffer was added thereto at 50 μL/well, and the resultant was cultured at room temperature for 1 hour. The resultant was washed with PBS-T, SuperSignal (registered trademark) ELISA Pico Chemiluminescent Substrate (Thermo […], #37069) was added thereto at 50 μL/well, and a signal was measured using EnVision.

EP300, sequence (Q09472 whole entry): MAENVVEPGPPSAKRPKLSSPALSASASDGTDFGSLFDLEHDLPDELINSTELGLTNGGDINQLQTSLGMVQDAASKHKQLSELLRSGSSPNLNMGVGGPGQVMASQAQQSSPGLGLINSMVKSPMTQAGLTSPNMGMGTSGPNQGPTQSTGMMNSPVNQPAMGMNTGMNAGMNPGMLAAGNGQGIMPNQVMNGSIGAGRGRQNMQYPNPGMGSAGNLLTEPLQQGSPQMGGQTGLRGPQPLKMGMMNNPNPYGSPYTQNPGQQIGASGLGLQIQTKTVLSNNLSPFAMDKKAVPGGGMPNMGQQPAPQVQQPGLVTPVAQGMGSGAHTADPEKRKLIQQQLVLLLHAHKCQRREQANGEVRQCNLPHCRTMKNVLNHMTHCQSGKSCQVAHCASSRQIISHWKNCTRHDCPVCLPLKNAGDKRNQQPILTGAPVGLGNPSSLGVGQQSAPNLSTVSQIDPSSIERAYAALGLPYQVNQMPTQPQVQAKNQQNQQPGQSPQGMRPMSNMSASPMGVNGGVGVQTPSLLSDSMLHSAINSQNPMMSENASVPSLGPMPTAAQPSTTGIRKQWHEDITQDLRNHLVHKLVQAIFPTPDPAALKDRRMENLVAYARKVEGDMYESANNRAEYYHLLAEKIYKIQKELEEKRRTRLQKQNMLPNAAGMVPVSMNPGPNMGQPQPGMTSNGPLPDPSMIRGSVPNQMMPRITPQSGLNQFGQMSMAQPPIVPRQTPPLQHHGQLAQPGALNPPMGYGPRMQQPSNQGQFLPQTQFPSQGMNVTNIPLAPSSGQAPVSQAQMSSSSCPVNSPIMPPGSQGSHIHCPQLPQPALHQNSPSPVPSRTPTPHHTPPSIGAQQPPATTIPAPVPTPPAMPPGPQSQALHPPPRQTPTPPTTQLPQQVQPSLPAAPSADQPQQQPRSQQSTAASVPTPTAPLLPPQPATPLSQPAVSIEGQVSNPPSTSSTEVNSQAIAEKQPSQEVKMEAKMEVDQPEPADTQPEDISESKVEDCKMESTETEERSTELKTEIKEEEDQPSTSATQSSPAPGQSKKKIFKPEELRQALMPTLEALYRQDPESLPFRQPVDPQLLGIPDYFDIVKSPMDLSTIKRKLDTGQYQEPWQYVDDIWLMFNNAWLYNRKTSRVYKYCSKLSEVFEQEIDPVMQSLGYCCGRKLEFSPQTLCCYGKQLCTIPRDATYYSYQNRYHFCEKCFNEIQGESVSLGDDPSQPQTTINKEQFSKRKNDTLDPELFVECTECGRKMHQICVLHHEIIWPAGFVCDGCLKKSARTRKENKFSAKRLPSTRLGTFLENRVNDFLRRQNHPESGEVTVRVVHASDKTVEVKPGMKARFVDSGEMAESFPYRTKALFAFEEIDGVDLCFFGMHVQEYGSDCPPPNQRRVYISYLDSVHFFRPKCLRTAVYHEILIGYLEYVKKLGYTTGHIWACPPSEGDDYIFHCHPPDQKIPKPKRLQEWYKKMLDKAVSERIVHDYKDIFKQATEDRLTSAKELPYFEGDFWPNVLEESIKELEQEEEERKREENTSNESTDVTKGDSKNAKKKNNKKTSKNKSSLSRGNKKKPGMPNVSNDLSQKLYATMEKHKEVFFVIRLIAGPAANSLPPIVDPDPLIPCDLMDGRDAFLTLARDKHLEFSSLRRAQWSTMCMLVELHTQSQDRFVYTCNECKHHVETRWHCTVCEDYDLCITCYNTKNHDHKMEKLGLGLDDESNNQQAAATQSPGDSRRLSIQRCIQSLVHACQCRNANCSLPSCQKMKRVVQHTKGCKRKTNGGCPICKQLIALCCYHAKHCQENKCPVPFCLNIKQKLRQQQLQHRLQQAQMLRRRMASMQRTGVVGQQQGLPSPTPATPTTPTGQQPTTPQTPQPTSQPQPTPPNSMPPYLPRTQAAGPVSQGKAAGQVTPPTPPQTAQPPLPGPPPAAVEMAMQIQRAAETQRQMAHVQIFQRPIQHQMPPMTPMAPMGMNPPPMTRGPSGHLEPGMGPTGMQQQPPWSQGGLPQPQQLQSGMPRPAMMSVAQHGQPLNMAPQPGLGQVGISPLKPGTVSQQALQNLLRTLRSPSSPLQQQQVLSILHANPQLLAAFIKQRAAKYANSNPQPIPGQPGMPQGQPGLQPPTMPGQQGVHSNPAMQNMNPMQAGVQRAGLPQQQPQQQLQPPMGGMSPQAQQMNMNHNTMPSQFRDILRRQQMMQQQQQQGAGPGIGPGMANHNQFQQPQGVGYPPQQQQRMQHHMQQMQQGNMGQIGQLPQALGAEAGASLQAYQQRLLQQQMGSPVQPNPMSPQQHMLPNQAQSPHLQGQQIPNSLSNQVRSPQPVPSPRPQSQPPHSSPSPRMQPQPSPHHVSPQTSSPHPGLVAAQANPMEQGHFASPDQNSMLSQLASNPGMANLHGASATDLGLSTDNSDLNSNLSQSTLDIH

IC50 [1] | IC50 [2] | IC50 [3] | SMILES
213 nM | 237 nM | 709 nM | COc1ccc(C2(C(=O)N3CCC[C@@H]3C(=O)Nc3ccc4[nH]ccc4c3)CCCC2)cc1 [Example 17, N-1H-Indol-5-yl-1-{[1-(4-methoxyphenyl)cyclopentyl]carbonyl}-D-prolinamide]
182 nM | 233 nM | 577 nM | CNc1cccc(NC(=O)[C@H]2CCCN2C(=O)C2(c3ccc(OC)cc3)CCCC2)n1 [Example 30, 1-{[1-(4-Methoxyphenyl)cyclopentyl]carbonyl}-N-[6-(methylamino)pyridin-2-yl)-D-prolinamide]
61 nM | 95 nM | 304 nM | COc1ccc(C2(C(=O)N3CCC[C@@H]3C(=O)Nc3cccc4[nH]ccc34)CCCC2)cc1 [Example 16, N-1H-Indol-4-yl-1-{[1-(4-methoxyphenyl)cyclopentyl]carbonyl}-D-prolinamide]
259 nM | 334 nM | 1030 nM | COc1ccc(C2(C(=O)N3C[C@H](O)C[C@@H]3C(=O)Nc3cccc4[nH]ncc34)CCCC2)cc1 [Example 5, (4R)-4-Hydroxy-N-1H-indazol-4-yl-1-{[1-(4-methoxyphenyl)cyclopentyl]carbonyl}-D-prolinamide]
40 nM | 39 nM | 307 nM | COc1ccc(C2(C(=O)N3CSC[C@@H]3C(=O)Nc3ccccc3C#N)CCCCC2)cc1 [Example 34, (4S)—N-(2-Cyanophenyl)-3-{[1-(4-methoxyphenyl)cyclohexyl]carbonyl}-1,3-thiazolidine-4-carboxamide]
218 nM | 353 nM | 908 nM | COc1ccc(C2(C(=O)N3CCC[C@@H]3C(=O)Nc3cccc(N)n3)CCCC2)cc1 [Example 15, N-(6-Aminopyridin-2-yl)-1-{[1-(4-methoxyphenyl)cyclopentyl]carbonyl}-D-prolinamide]

Second part, the compound before the results:

SMILES | IC50 [1] | IC50 [2] | IC50 [3]
O=C(NS(=O)(=O)C1CC1)c1ccc(C2(C(=O)N3C[C@H](F)C[C@@H]3C(=O)Nc3cccc4[nH]ncc34)CCCCC2)cc1 [Example 36, (4R)-1-[(1-{4-[(Cyclopropylsulfonyl)carbamoyl]phenyl}cyclohexyl)carbonyl]-4-fluoro-N-1H-indazol-4-yl-D-prolinamide] | 17 nM | 23 nM | > 10000 nM
COc1ccc(C2(C(=O)N3CCC[C@@H]3C(=O)Nc3ccc(O)c(Cl)c3)CCCC2)cc1 [Example 21, N-(3-Chloro-4-hydroxy-phenyl)-1-{[1-(4-methoxyphenyl)cyclopentyl]carbonyl}-D-prolinamide] | 130 nM | 36 nM | 458 nM
COc1ccc(C2(C(=O)N3CCC[C@@H]3C(=O)Nc3ccn(C)n3)CCCC2)cc1 [Example 22, 1-{[1-(4-Methoxyphenyl)cyclopentyl]carbonyl}-N-(1-methyl-1H-pyrazol-3-yl)-D-prolinamide] | 962 nM | 676 nM | 2250 nM
COc1ccc(C2(C(=O)N3C[C@](C)(O)C[C@@H]3C(=O)Nc3cccc4[nH]ncc34)CCCC2)cc1 [Example 31, (4R)-4-Hydroxy-N-1H-indazol-4-yl-1-{[1-(4-methoxyphenyl)cyclopentyl]carbonyl}-4-methyl-D-prolinamide] | 364 nM | 652 nM | 1550 nM
